Experimental data: patent US12594267B2, “Capsid inhibitors for the treatment of HIV” (Gilead Sciences, Inc., priority 2018, dated 2026)
Read-outs that look alike come from different tables or passages of the source.

Assay: PK after subcutaneous administration of solutions in rats
Assay type: in vivo, Wistar Han rat
Details: for Plasma concentration: 0 h
Procedure: Formulations containing the compound of Formula (Ia) were prepared as aqueous solutions or oral formulations and administered subcutaneously to rats, dogs, cynomolgus monkey, and/or rhesus monkey.
A solution of the compound of Formula (Ia) in 10% ethanol, 13% water, and 77% PEG 200 (400 mg/mL) was prepared. The solution was administered subcutaneously to dogs at a dose of 12 mg/kg and rats at a dose of 50 mg/kg and the pharmacokinetic (PK) profile was determined. […] In both species, plasma concentrations of the compound of Formula (Ia) were maintained above the target trough concentration of 20 nM (corresponding to an IQ of 5) for at least 84 days (12 weeks).
A solution of the free acid of the compound of Formula (Ia) in 15% water and 85% PEG 300 (300 mg/mL) was prepared. The solution was administered subcutaneously to male Wistar Han rats at a dose level of 50 mg/kg and dose volume of 0.167 mL/kg and the pharmacokinetic (PK) profile was determined.
A 300 mg/ml solution of a compound of Formula (Ia) having 9.8 w/w % water, 65.0 w/w % PEG 300, and 25.2 w/w % of the compound of Formula (Ia) was prepared. The solution was administered subcutaneously to rats at a dose of 50 mg/kg and to dogs at a dose of 12 mg/kg and the pharmacokinetic (PK) profile was determined. […] In the rat, plasma concentrations of the compound of Formula (Ia) were maintained above the target trough concentration of 20 nM for at least 168 days (24 weeks). In the dog, plasma concentrations of the compound of Formula (Ia) were maintained above the target trough concentration of 20 nM for at least 84 days (12 weeks).
(§1) A 150 mg/ml solution of a compound of Formula (Ia) having 27.92 w/w % water, 58.04 w/w % PEG 300, 13.47 w/w % of a compound of Formula (Ia), and 1.1 w/w % NaOH was prepared. The solution was administered subcutaneously to rats at a dose of 50 mg/kg and to dogs at a dose of 12 mg/kg and the pharmacokinetic (PK) profile was determined. […] In the rat, plasma concentrations of the compound of Formula (Ia) were maintained above the target trough concentration of 20 nM for at least 126 days (18 weeks). In the dog, plasma concentrations of the compound of Formula (Ia) were maintained above the target trough concentration of 20 nM for at least 56 days (8 weeks).
as §1, with “300” for “150”, “23.2” for “27.92”, “50.0” for “58.04”, “25.7” for “13.47”
A 50 mg/ml solution of a compound of Formula (Ia) having 30.07 w/w % water, 64.40 w/w % PEG 300, 4.68 w/w % of a sodium salt of the compound of Formula (Ia), and 0.85 w/w % poloxamer 188 was prepared. The solution was administered subcutaneously to rats at a dose of 50 mg/kg and to dogs at a dose of 6 mg/kg and the pharmacokinetic (PK) profile was determined. […] In the rat, plasma concentrations of the compound of Formula (Ia) were maintained above the target trough concentration of 20 nM for at least 28 days (4 weeks). In the dog, plasma concentrations of the compound of Formula (Ia) were maintained above the target trough concentration of 20 nM for at least 14 days (2 weeks).
A 75 mg/ml solution of a compound of Formula (Ia) having 29.21 w/w % water, 62.55 w/w % PEG 300, 6.97 w/w % of a sodium salt of the compound of Formula (Ia), and 1.68 w/w % poloxamer 188 was prepared. The solution was administered subcutaneously to rats at a dose of 50 mg/kg and to dogs at a dose of 6 mg/kg and the pharmacokinetic (PK) profile was determined. […]

[1] = male, Wistar Han, rat, plasma, sc, 50 mg/kg, rat #3, SC 50 mg/kg, 300 mg/mL in 15% water/85% PEG 300
[2] = male, Wistar Han, rat, plasma, sc, 50 mg/kg, rat mean, n=3, SC 50 mg/kg, 300 mg/mL in 15% water/85% PEG 300
[3] = rat, SC 50 mg/kg, 75 mg/mL solution (w/w %: 29.21 water, 62.55 PEG 300, 6.97 sodium salt of Formula (Ia), 1.68 poloxamer 188), mean ± SD, n=3
[4] = rat, SC 50 mg/kg, 125 mg/mL solution (w/w %: 27.51 water, 58.92 PEG 300, 11.48 sodium salt of Formula (Ia), 2.09 poloxamer 188), mean ± SD, n=3
[5] = rat, SC 50 mg/kg, 150 mg/mL solution (w/w %: 26.6 water, 56.97 PEG 300, 13.39 Formula (Ia), 0.57 NaOH, 2.49 poloxamer 188), mean ± SD, n=3
[6] = rat, SC 50 mg/kg, 300 mg/mL solution (w/w %: 9.8 water, 65.0 PEG 300, 25.2 Formula (Ia)), mean ± SD, n=3
[7] = rat, SC 50 mg/kg, 300 mg/mL solution (w/w %: 21.97 water, 47.05 PEG 300, 25.21 Formula (Ia), 1.08 NaOH, 4.69 poloxamer 188), mean ± SD, n=3

CC(C)(C#Cc1ccc(-c2ccc(Cl)c3c(NS(C)(=O)=O)nn(CC(F)(F)F)c23)c([C@H](Cc2cc(F)cc(F)c2)NC(=O)Cn2nc(C(F)(F)F)c3c2C(F)(F)[C@@H]2C[C@H]32)n1)S(C)(=O)=O [Formula (Ia), N—((S)-1-(3-(4-chloro-3-(methylsulfonamido)-1-(2,2,2-trifluoroethyl)-1H-indazol-7-yl)-6-(3-methyl-3-(methylsulfonyl)but-1-yn-1-yl)pyridin-2-yl)-2-(3,5-difluorophenyl)ethyl)-2-((3bS,4aR)-5,5-difluoro-3-(trifluoromethyl)-3b,4,4a,5-tetrahydro-1H-cyclopropa[3,4]cyclopenta[1,2-c]pyrazol-1-yl)acetamide]
concentration at 96 h [1]: 85.2 nM | concentration at 168 h [1]: 137 nM | concentration at 336 h [1]: 284 nM | concentration at 504 h [1]: 281 nM | concentration at 672 h [1]: 304 nM | concentration at 840 h [1]: 302 nM | concentration at 1008 h [1]: 289 nM | concentration at 1344 h [1]: 278 nM | concentration at 1680 h [1]: 200 nM | concentration at 1 h (male, Wistar Han, rat, plasma, sc, 50 mg/kg, rat mean, n=3, 1 h, SC 50 mg/kg, 300 mg/mL in 15% water/85% PEG 300): 8.6 nM | concentration at 3 h (male, Wistar Han, rat, plasma, sc, 50 mg/kg, rat mean, n=3, 3 h, SC 50 mg/kg, 300 mg/mL in 15% water/85% PEG 300): 21.5 nM | concentration at 8 h (male, Wistar Han, rat, plasma, sc, 50 mg/kg, rat mean, n=3, 8 h, SC 50 mg/kg, 300 mg/mL in 15% water/85% PEG 300): 32.2 nM | concentration at 24 h (male, Wistar Han, rat, plasma, sc, 50 mg/kg, rat mean, n=3, 24 h, SC 50 mg/kg, 300 mg/mL in 15% water/85% PEG 300): 48.2 nM | concentration at 48 h (male, Wistar Han, rat, plasma, sc, 50 mg/kg, rat mean, n=3, 48 h, SC 50 mg/kg, 300 mg/mL in 15% water/85% PEG 300): 70.6 nM | concentration at 72 h (male, Wistar Han, rat, plasma, sc, 50 mg/kg, rat mean, n=3, 72 h, SC 50 mg/kg, 300 mg/mL in 15% water/85% PEG 300): 67.5 nM | concentration at 96 h [2]: 75.8 nM | concentration at 168 h [2]: 137 nM | concentration at 336 h [2]: 272 nM | concentration at 504 h [2]: 292 nM | concentration at 672 h [2]: 312 nM | concentration at 840 h [2]: 313 nM | concentration at 1008 h [2]: 282 nM | concentration at 1344 h [2]: 253 nM | concentration at 1680 h [2]: 189 nM | AUC(0-t) (male, Wistar Han, rat, plasma, sc, 50 mg/kg, rat, single SC 50 mg/kg, 300 mg/mL free acid in 85:15 w/w PEG 300:water, mean ± SD, n=3, read-out: AUC0-168h): 13.3 ± 0.3 µM·h | AUC(0-t) (male, Wistar Han, rat, plasma, sc, 50 mg/kg, rat, single SC 50 mg/kg, 300 mg/mL free acid in 85:15 w/w PEG 300:water, mean ± SD, n=3, read-out: AUC0-336h): 47.6 ± 1.2 µM·h | AUC(0-t) (male, Wistar Han, rat, plasma, sc, 50 mg/kg, rat, single SC 50 mg/kg, 300 mg/mL free acid in 85:15 w/w PEG 300:water, mean ± SD, n=3, read-out: AUC0-672h): 146 ± 6 µM·h | Plasma concentration (rat #1, SC 50 mg/kg, 300 mg/mL in 15% water/85% PEG 300): BLQ | Plasma concentration (rat #2, SC 50 mg/kg, 300 mg/mL in 15% water/85% PEG 300): BLQ | Plasma concentration (rat #3, SC 50 mg/kg, 300 mg/mL in 15% water/85% PEG 300): BLQ | Time plasma concentrations maintained above the target trough concentration of 20 nM (rat, SC 50 mg/kg, 50 mg/mL solution (w/w %: 30.07 water, 64.40 PEG 300, 4.68 sodium salt of Formula (Ia), 0.85 poloxamer 188)): at least 28 days | AUC0-28d (rat, SC 50 mg/kg, 50 mg/mL solution (w/w %: 30.07 water, 64.40 PEG 300, 4.68 sodium salt of Formula (Ia), 0.85 poloxamer 188), mean ± SD, n=3): 643 ± 75 µM·h | Time plasma concentrations maintained above the target trough concentration of 20 nM (rat, SC 50 mg/kg, 75 mg/mL solution (w/w %: 29.21 water, 62.55 PEG 300, 6.97 sodium salt of Formula (Ia), 1.68 poloxamer 188)): at least 42 days | AUC0-7d [3]: 241 ± 22 µM·h | AUC0-28d [3]: 690 ± 32 µM·h | Time plasma concentrations maintained above the target trough concentration of 20 nM (rat, SC 50 mg/kg, 100 mg/mL solution (w/w %: 28.36 water, 60.73 PEG 300, 9.23 sodium salt of Formula (Ia), 1.68 poloxamer 188)): at least 28 days | AUC0-28d (rat, SC 50 mg/kg, 100 mg/mL solution (w/w %: 28.36 water, 60.73 PEG 300, 9.23 sodium salt of Formula (Ia), 1.68 poloxamer 188), mean ± SD, n=3): 716 ± 62 µM·h | Time plasma concentrations maintained above the target trough concentration of 20 nM (rat, SC 50 mg/kg, 125 mg/mL solution (w/w %: 27.51 water, 58.92 PEG 300, 11.48 sodium salt of Formula (Ia), 2.09 poloxamer 188)): at least 28 days | AUC0-7d [4]: 153 ± 38 µM·h | AUC0-28d [4]: 673 ± 67 µM·h | Time plasma concentrations maintained above the target trough concentration of 20 nM (rat, SC 50 mg/kg, 150 mg/mL solution (w/w %: 26.6 water, 56.97 PEG 300, 13.39 Formula (Ia), 0.57 NaOH, 2.49 poloxamer 188)): at least 98 days | AUC0-98d [5]: 949 ± 114 µM·h | AUC0-112d [5]: 963 ± 102 µM·h | Time plasma concentrations maintained above the target trough concentration of 20 nM (rat, SC 50 mg/kg, 150 mg/mL solution (w/w %: 27.92 water, 58.04 PEG 300, 13.47 Formula (Ia), 1.1 NaOH)): at least 126 days | AUC0-98d (rat, SC 50 mg/kg, 150 mg/mL solution (w/w %: 27.92 water, 58.04 PEG 300, 13.47 Formula (Ia), 1.1 NaOH), mean ± SD, n=3): 801 ± 119 µM·h | Time plasma concentrations maintained above the target trough concentration of 20 nM (rat, SC 50 mg/kg, 300 mg/mL solution (w/w %: 9.8 water, 65.0 PEG 300, 25.2 Formula (Ia))): at least 168 days | AUC0-98d [6]: 531 ± 30 µM·h | AUC0-168d [6]: 730 ± 55 µM·h | Time plasma concentrations maintained above the target trough concentration of 20 nM (rat, SC 50 mg/kg, 300 mg/mL solution (w/w %: 21.97 water, 47.05 PEG 300, 25.21 Formula (Ia), 1.08 NaOH, 4.69 poloxamer 188)): at least 98 days | AUC0-98d [7]: 928 ± 175 µM·h | AUC0-140d [7]: 948 ± 169 µM·h | Time plasma concentrations maintained above the target trough concentration of 20 nM (rat, SC 50 mg/kg, 300 mg/mL solution (w/w %: 23.2 water, 50.0 PEG 300, 25.7 Formula (Ia), 1.1 NaOH)): at least 126 days | AUC0-126d (rat, SC 50 mg/kg, 300 mg/mL solution (w/w %: 23.2 water, 50.0 PEG 300, 25.7 Formula (Ia), 1.1 NaOH), mean ± SD, n=3): 698 ± 13 µM·h | Time plasma concentrations maintained above the target trough concentration of 20 nM (rat, SC 50 mg/kg, 400 mg/mL solution in 10% ethanol, 13% water, 77% PEG 200): at least 84 days | AUC0-84d (rat, SC 50 mg/kg, 400 mg/mL solution in 10% ethanol, 13% water, 77% PEG 200, mean ± SD, n=3): 404 ± 139 µM·h | AUC0-1680h (rat, single SC 50 mg/kg, 300 mg/mL free acid in 85:15 w/w PEG 300:water, mean ± SD, n=3): 412 ± 21 µM·h
